Laboratory results reported in BindingDB's records for patent WO2025049746 (Eikon Therapeutics, 2025).

What was measured:
[1] = target: Bifunctional 3'-5' exonuclease/ATP-dependent helicase WRN (Homo sapiens, UniProt Q14191); assay: ADP-Glo Kinase Assay
Description: ATPase activity was measured using the ADP-Glo Kinase Assay following the manufacturers recommended protocol.

[2] = target: T1, Bifunctional 3'-5' exonuclease/ATP-dependent helicase WRN [480-1251] (UniProt Q14191); assay: Biochemical Activity Assays
T1 construct: 480-1251
Description: The pure fractions were pooled and desalted/buffer exchanged into storage buffer using a HiTrap desalting column. […] First, WRN alone was pre-incubated with DMSO or compound of interest for 15 minutes. To initiate the reaction, ATP, dsDNA substrate, and ssDNA competitor (ssDNA_comp: […]) were added and incubated at room temperature for 20 minutes at which point DNA unwinding activity was monitored by measuring Cy3 fluorescence. After obtaining the reading, the ATPase activity was measured using the ADP-Glo Kinase Assay following the manufacturers recommended protocol. […] Compounds were assayed in a 10-point dose response in duplicate at a 1% DMSO final assay concentration.

Sequence of Bifunctional 3'-5' exonuclease/ATP-dependent helicase WRN (Q14191 whole entry): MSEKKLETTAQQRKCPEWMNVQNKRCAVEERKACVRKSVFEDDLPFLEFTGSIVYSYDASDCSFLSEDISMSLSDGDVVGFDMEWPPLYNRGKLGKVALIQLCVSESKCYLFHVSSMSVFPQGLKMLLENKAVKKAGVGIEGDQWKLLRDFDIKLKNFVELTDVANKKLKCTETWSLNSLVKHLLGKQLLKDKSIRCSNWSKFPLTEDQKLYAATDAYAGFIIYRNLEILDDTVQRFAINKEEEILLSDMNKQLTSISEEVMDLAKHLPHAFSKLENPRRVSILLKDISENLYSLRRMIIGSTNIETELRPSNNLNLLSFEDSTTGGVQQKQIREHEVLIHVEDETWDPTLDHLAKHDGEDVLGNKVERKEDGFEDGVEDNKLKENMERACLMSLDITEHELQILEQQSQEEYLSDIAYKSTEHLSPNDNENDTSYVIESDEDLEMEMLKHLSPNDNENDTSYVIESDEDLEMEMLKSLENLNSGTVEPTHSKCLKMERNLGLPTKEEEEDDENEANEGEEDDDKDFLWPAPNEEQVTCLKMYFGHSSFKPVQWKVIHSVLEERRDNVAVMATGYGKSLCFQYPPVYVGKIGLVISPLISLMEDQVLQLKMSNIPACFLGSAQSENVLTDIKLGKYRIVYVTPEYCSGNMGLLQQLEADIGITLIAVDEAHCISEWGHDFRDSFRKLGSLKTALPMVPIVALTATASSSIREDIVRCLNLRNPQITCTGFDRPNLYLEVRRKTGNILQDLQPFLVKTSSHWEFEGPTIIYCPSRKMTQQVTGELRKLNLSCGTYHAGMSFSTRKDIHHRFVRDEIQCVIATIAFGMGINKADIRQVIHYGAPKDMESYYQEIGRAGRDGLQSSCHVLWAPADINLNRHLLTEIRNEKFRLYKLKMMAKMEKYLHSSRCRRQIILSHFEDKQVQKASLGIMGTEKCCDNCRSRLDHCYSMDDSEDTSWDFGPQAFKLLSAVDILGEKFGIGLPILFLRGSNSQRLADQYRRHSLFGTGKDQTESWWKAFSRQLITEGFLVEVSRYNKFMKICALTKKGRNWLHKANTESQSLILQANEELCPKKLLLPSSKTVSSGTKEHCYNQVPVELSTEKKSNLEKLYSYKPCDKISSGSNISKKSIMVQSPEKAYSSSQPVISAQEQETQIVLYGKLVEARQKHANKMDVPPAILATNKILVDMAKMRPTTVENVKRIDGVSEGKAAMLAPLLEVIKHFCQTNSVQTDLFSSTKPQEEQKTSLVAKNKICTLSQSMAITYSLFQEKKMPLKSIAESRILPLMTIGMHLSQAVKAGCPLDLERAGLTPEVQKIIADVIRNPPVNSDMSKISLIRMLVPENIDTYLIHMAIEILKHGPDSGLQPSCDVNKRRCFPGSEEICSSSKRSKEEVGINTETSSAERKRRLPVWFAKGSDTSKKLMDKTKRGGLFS
T1 sequence (Q14191 480-1251): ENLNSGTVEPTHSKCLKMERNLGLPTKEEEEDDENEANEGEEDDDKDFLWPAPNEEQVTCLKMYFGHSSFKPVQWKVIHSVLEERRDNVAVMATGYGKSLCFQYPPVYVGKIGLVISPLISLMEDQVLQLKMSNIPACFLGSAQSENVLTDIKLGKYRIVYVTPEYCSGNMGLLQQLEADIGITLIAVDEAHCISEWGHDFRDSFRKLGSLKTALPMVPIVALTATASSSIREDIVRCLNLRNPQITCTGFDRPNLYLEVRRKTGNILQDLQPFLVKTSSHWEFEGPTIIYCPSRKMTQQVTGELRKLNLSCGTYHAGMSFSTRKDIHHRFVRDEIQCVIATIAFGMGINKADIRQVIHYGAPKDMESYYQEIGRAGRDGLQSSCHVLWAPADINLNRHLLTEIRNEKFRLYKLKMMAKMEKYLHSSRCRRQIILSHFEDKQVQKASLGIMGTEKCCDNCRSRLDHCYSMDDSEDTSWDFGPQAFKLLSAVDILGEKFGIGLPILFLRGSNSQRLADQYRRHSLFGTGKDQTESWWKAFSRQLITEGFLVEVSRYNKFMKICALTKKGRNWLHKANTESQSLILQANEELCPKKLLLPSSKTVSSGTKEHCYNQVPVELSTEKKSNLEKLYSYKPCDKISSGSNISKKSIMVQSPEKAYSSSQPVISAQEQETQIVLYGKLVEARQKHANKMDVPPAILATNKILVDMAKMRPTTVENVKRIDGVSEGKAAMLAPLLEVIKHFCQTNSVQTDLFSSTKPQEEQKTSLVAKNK

Row | Compound | IC50 [1] [nM] | IC50 [2] [nM]
1 | CCc1c(N2CCN(C(=O)c3ncnc(C)c3O)CC2)c(=O)n2nc(-c3ccc4c(c3)CCN4C)nc2n1CC(=O)Nc1ccc(C(F)(F)F)cc1Cl [WO2025049746, Example 199] | 40 | 32
2 | CCc1c(N2CCN(C(=O)c3ncnc(C)c3O)CC2)c(=O)n2nc(-c3cc4ccnn4cc3C)nc2n1CC(=O)Nc1ccc(C(F)(F)F)cc1Cl [WO2025049746, Example 243] | 26 | 34
3 | CCc1c(N2CCN(C(=O)c3ncnc(C)c3O)CC2)c(=O)n2nc(-c3ccc4c(c3C)COC4(C)C)nc2n1CC(=O)Nc1ccc(C(F)(F)F)cc1Cl [WO2025049746, Example 214] | 45 | 38
4 | CCc1c(N2CCN(C(=O)c3ncnc(C)c3O)CC2)c(=O)n2nc(-c3cc4c(cc3C)C(C)(C)OC4)nc2n1CC(=O)Nc1ccc(C(F)(F)F)cc1Cl [WO2025049746, Example 213] | 85 | 58
5 | CCc1c(N2CCN(C(=O)CO)CC2)c(=O)n2nc(C3=CCOCC3)nc2n1CC(=O)Nc1ccc(C(F)(F)F)cc1Cl [WO2025049746, Example 53] | 440 | 254
6 | CCc1c(N2CCN(C(=O)c3ncnc(C)c3O)CC2)c(=O)n2nc(-c3ccc4c(c3)CC[C@H]4OC)nc2n1CC(=O)Nc1ccc(C(F)(F)F)cc1Cl [WO2025049746, Example 208] | 39 | 34
7 | CCc1c(N2CCN(C(=O)c3ncnc(C)c3O)CC2)c(=O)n2nc(-c3ccc4ncccc4c3)nc2n1CC(=O)Nc1ccc(C(F)(F)F)cc1Cl [WO2025049746, Example 264] | 23 | 24
8 | CCc1c(N2CCN(C(=O)c3ncnc(C)c3O)CC2)c(=O)n2nc(-c3ccc4oc(C)nc4c3)nc2n1CC(=O)Nc1ccc(C(F)(F)F)cc1Cl [WO2025049746, Example 21] | 44.8 | 38.5
9 | CCc1c(N2CCN(C(=O)c3nccc4nc[nH]c34)CC2)c(=O)n2nc(N(C)C)nc2n1CC(=O)Nc1ccc(C(F)(F)F)c2c1CC2 [WO2025049746, Example 108] | 21.8 | 15.5
10 | CCc1c(N2CCN(C(=O)c3ccccc3NS(=O)(=O)C3CC3)CC2)c(=O)n2nc(N(C)C)nc2n1CC(=O)Nc1ccc(C(F)(F)F)cc1Cl [WO2025049746, Example 85] | 35.1 | 28.2
11 | CCc1c(N2CCN(C(=O)c3ncnc(C)c3O)CC2)c(=O)n2nc(-c3ccc4nn(C)c(C)c4c3)nc2n1CC(=O)Nc1ccc(C(F)(F)F)cc1Cl [WO2025049746, Example 298] | 31 | 29
12 | CCc1c(N2CCN(C(=O)c3ncnc(C)c3O)CC2)c(=O)n2nc(-c3ccc4c(c3)C(F)(F)CC4)nc2n1CC(=O)Nc1ccc(C(F)(F)F)cc1Cl [WO2025049746, Example 178] | 42 | 39
13 | CCc1c(N2CCN(C(=O)c3ncnc(C)c3O)CC2)c(=O)n2nc(-c3ccc4ccnn4c3)nc2n1CC(=O)Nc1ccc(C(F)(F)F)cc1Cl [WO2025049746, Example 253] | 24 | 24
14 | CCc1c(N2CCN(C(=O)c3ncnc(C)c3O)CC2)c(=O)n2nc(-c3cc(C)c4nn(C)cc4c3)nc2n1CC(=O)Nc1ccc(C(F)(F)F)cc1Cl [WO2025049746, Example 299] | 29 | 31
15 | CCc1c(N2CCN(C(=O)c3ncnc(C)c3O)CC2)c(=O)n2nc(-c3cc(C)c4c(c3)COC4(C)C)nc2n1CC(=O)Nc1ccc(C(F)(F)F)cc1Cl [WO2025049746, Example 221] | 47 | 56
16 | CCc1c(N2CCN(C(=O)c3ncnc(C)c3O)CC2)c(=O)n2nc(-c3ccc4c(c3)OCCO4)nc2n1CC(=O)Nc1ccc(C(F)(F)F)cc1Cl [WO2025049746, Example 1] | 23.6 | 20.7
17 | CCc1c(N2CCN(C(=O)c3ncnc(C)c3O)CC2)c(=O)n2nc(-c3cccc4c3OCC4)nc2n1CC(=O)Nc1ccc(C(F)(F)F)cc1Cl [WO2025049746, Example 158] | 71 | 49
18 | CCc1c(N2CCN(C(=O)c3ccccc3NS(=O)(=O)C3CC3)CC2)c(=O)n2nc(N(C)C)nc2n1CC(=O)Nc1ccc(C(F)(F)F)c2c1CC2 [WO2025049746, Example 105] | 281 | 264
19 | CCc1c(N2CCN(C(=O)c3ncnc(C)c3O)CC2)c(=O)n2nc(-c3ccc4c(c3)COC43CCC3)nc2n1CC(=O)Nc1ccc(C(F)(F)F)cc1Cl [WO2025049746, Example 215] | 48 | 46
20 | CCc1c(N2CCN(C(=O)c3ncnc(C)c3O)CC2)c(=O)n2nc(-c3cncc4c3cnn4C)nc2n1CC(=O)Nc1ccc(C(F)(F)F)cc1Cl [WO2025049746, Example 24] | 42.9 | 32.9
21 | CCc1c(N2CCN(C(=O)c3ncnc(C)c3O)CC2)c(=O)n2nc(-c3ccc4c(c3)CCOC4(C)C)nc2n1CC(=O)Nc1ccc(C(F)(F)F)cc1Cl [WO2025049746, Example 195] | 45 | 39
22 | CCc1c(N2CCN(C(=O)c3ncnc(C)c3O)CC2)c(=O)n2nc(-c3cnc4nc(C)oc4c3)nc2n1CC(=O)Nc1ccc(C(F)(F)F)cc1Cl [WO2025049746, Example 282] | 47 | 53

Second part, the compound after the results:

Row | IC50 [1] [nM] | IC50 [2] [nM] | Compound
23 | 20 | 20 | CCc1c(N2CCN(C(=O)c3nocc3O)CC2)c(=O)n2nc(-c3ccc4c(c3)COC4)nc2n1CC(=O)Nc1ccc(C(F)(F)F)cc1Cl [WO2025049746, Example 446]
24 | 42 | 36 | CCc1c(N2CCN(C(=O)c3ncnc(C)c3O)CC2)c(=O)n2nc(N(C)C)nc2n1CC(=O)Nc1ccc(SC(F)(F)F)cc1Cl [WO2025049746, Example 396]
25 | 34 | 33 | CCc1c(N2CCN(C(=O)c3ncnc(C)c3O)CC2)c(=O)n2nc(-c3ccc4nc(N5CCOCC5)oc4c3)nc2n1CC(=O)Nc1ccc(C(F)(F)F)cc1Cl [WO2025049746, Example 315]
26 | 163 | 161 | CCc1c(N2CCN(C(=O)c3ncnc(C)c3O)CC2)c(=O)n2nc(C3=CCOCC3)nc2n1CC(=O)Nc1ccc(OC(F)F)cc1Cl [WO2025049746, Example 370]
27 | 93 | 82 | CCc1c(N2CCN(C(=O)c3ncnc(C)c3O)CC2)c(=O)n2nc(N3CCC3)nc2n1CC(=O)Nc1c(Cl)cc(C(F)(F)F)c2c1CC2 [WO2025049746, Example 391]
28 | 46 | 36 | CCc1c(N2CCN(C(=O)c3ncnc(C)c3O)CC2)c(=O)n2nc(-c3ccc4c(c3)CCOC4)nc2n1CC(=O)Nc1ccc(Cl)c(OC(F)F)c1Cl [WO2025049746, Example 406]
29 | 47 | 37 | CCc1c(N2CCN(C(=O)c3ncnc(C)c3O)CC2)c(=O)n2nc(-c3ccc4c(c3)COC4)nc2n1CC(=O)Nc1c(Cl)cc(C(F)(F)F)c2scnc12 [WO2025049746, Example 424]
30 | 65 | 65 | CCc1c(N2CCN(C(=O)c3nsc(N4CCN(C)CC4)c3O)CC2)c(=O)n2nc(-c3ccc4c(c3)COC4)nc2n1CC(=O)Nc1ccc(C(F)(F)F)cc1Cl [WO2025049746, Example 443]
31 | 29700 | 29700 | CCc1c(N2CCN(C(=O)c3ncnc(C)c3O)CC2)cn2nc(C3=CCOCC3)nc2c1CC(=O)Nc1ccc(C(F)(F)F)cc1Cl [WO2025049746, Example 374]
32 | 63 | 44 | CCc1c(N2CCN(C(=O)c3ncnc(C)c3O)CC2)c(=O)n2nc(C3=CCOCC3)nc2n1CC(=O)Nc1ccc(C(F)(F)F)c2cccnc12 [WO2025049746, Example 365]
33 | 47 | 38 | CCc1c(N2CCN(C(=O)c3nc4n(c(=O)c3O)CCC4)CC2)c(=O)n2nc(-c3ccc4c(c3)COC4)nc2n1CC(=O)Nc1ccc(C(F)(F)F)cc1Cl [WO2025049746, Example 422]
34 | 468 | 396 | CCc1c(N2CCN(C(=O)c3ncnc(C)c3O)CC2)c(=O)n2nc(N(C)C)nc2n1CC(=O)Nc1ccc(SC(F)(F)F)cc1 [WO2025049746, Example 392]
35 | 91 | 81 | CCc1c(N2CCN(C(=O)c3ncnc(C)c3O)[C@@H]3CC[C@@H]32)c(=O)n2nc(-c3ccc4c(c3)COC4(C)C)nc2n1CC(=O)Nc1ccc(C(F)(F)F)cc1Cl [WO2025049746, Example 459]
36 | 387 | 159 | CCc1c(N2CCN(C(=O)c3ncnc(C)c3O)CC2)c(=O)n2nc(-c3ccc4c(c3)COC4)nc2n1CC(=O)Nc1ccc(C(F)(F)F)cc1OC1CC1 [WO2025049746, Example 416]
37 | 49 | 39 | CCc1c(N2CCN(C(=O)c3ncnc(C)c3O)CC2)c(=O)n2nc(C3=CCOCC3)nc2n1CC(=O)Nc1ccc(OC(F)(F)Cl)cc1Cl [WO2025049746, Example 355]
38 | 43 | 35 | CCc1c(N2CCN(C(=O)c3ncnc(C)c3O)CC2)c(=O)n2nc(-c3ccc4c(c3)CCOC4)nc2n1CC(=O)Nc1ccc(SC(F)(F)F)cc1Cl [WO2025049746, Example 395]
39 | 1790 | 1810 | Cc1ncnc(C(=O)N2CCN(c3c4n(c5nc(-c6ccc7c(c6)COC7(C)C)nn5c3=O)[C@H](C(=O)Nc3ccc(C(F)(F)F)cc3Cl)C[C@@H]4C)CC2)c1O [WO2025049746, Example 471]
40 | 29700 | 29700 | CCc1c(N2CCN(C(=O)c3ncnc(C)c3O)CC2)c(=O)n2nc(-c3cc4c(cnn4C)cc3C)nc2n1CC(=O)Nc1ccc(C(F)(F)F)cc1Cl [WO2025049746, Example 306]
41 | 43 | 34 | CCc1c(N2CCN(C(=O)c3ncnc(C)c3O)CC2)c(=O)n2nc(-c3ccc4c(c3)CCOC4)nc2n1CC(=O)Nc1ccc(OC(F)(F)Cl)cc1 [WO2025049746, Example 398]
